Source: patent US11800866B2, “Methods for control of pests” (Bio-Gene Technology Limited, priority 2018, dated 2023)
Converted amounts (≈) assume the structure as drawn. Like-named read-outs stand apart in the source and are kept apart here.

Key:
Assay type in all cases: in vivo
[1] = system: Russian Wheat Aphid (Diuraphis noxia); assay: leaf dip method on wheat leaf segments, Russian Wheat Aphid; details: for LC50: concentration giving 50% mortality, 95% CIs
Experimental: The efficacy of flavesone against Russian Wheat Aphid (Diuraphis noxia) was assessed using the leaf dip method described in Moores et al 1994 (Pesticide Biochemistry and Physiology, 49, 114-120), adapted for use with cereal aphids by using wheat leaf segments.
Serially diluted concentrations of flavesone (1 to 30000 mg/L) were tested at rates designed to include the expected field rate in cereals (Table 1), along with a control of water. Leaf segments (25 mm) cut from wheat (Triticum aestivum) plants were submerged for 1 second in the insecticide solutions or water (control), and placed adaxial side up on 10 g/L agar in 35 mm petri dishes. Once leaves were air-dry, eight 3-4 day old D. noxia nymphs were transferred to insecticide-dipped leaf segments using a fine-haired paintbrush. The population used was originally collected from Dingee (VIC) and maintained in the laboratory under a 18:6 LD cycle at 12-20° C. since June 2016.
The petri dishes were then inverted onto a lid containing a 25 mm diameter filter paper to control humidity, and were placed at 18° C.±2° C. with a photoperiod of 16:8 LD cycle. Six replicates were used for each concentration tested, and responses were assessed after 48 and 96 hours. Aphids were scored as alive (vibrant and moving freely), dead (not moving over a 5 second period), or incapacitated (inhibited movement).
Dose-response curves were generated by plotting percentage mortality against log concentration. Mortality data was analysed using a logistic regression model with random effects. Logistic regression is suited for the analysis of binary response data (i.e. dead/alive) with the random effect component of the model controlling for the non-independence of mortality scores within replicates. […] Analyses were conducted using R version 3.3.1 (R Development Core Team 2018, R: A language and environment for statistical computing. R Foundation for Statistical Computing, Vienna, Austria. http//www.R-project.org).

[2] = system: green peach aphid (Myzus persicae); assay: leaf dip assay on Chinese cabbage leaves, green peach aphid
Experimental: The efficacy of flavesone against green peach aphid (Myzus persicae) was tested in a similar leaf dip assay as set out in Example 1, but used Chinese cabbage leaves, and 10 to 100,000 mg/L flavesone concentrations. The green peach aphids used were cultured in the laboratory from field collected insects.

[3] = system: cotton aphid (Aphis gossypii); assay: field trial, control of cotton aphid in cotton
Experimental: A field trial was conducted on a small plot of cotton in March 2018 to evaluate flavesone for the control of cotton aphid in cotton. The trial was conducted near Burren Junction in the Lower Namoi Valley Region of New South Wales, Australia. The trial was conducted in a crop grown as per standard commercial practice. It was precision planted on hills in rows 1 m apart and furrow flood irrigated. The crop was fully irrigated being watered as required over the duration of the season. The crop matured to produce good yield, typical of the region for the season. Light rainfall occurred at 6 and 7 days after treatment (DAT). The maximum temperature ranged from 28 to 38° C. and minimum temperature ranged from 14 to 23° C.
The plot was 4 m×8 m and four replicates were used. The plot was infested with cotton aphid at a moderate to high level with 36% of leaves infested pre-spray. The population on the untreated cotton increased over the duration of the trial with 83% leaves infested at 7 DAT.
The crop was either left untreated (control), treated with flavesone (Flavocide 500 EW) at varying concentrations or treated with Pirimor® (pirimicarb, positive control) as set out in Table 3:
The test solution was applied by broadcast method using a hand held boom sprayer with nozzles (Spraying Systems TT110015 flat fans) spaced 50 cm apart, with pressure being 250 kPa. Application speed was 1.5 m/s and the application volume was 105 L/ha.
The effectiveness of the application was evaluated on day 0 and 3 and 7 DAT. 20 leaves in the upper canopy of the plants in each plot were inspected and the number of aphids on each leaf recorded. The percentage of leaves infested and the mean number of aphids per leaf was then determined.
Statistical analyses were conducted using GenStat 64-bit Release 17.1 (PC/Windows Server 2008, VSN International Ltd). The model includes all treatment effects. Analysis of variance and least significant difference (LSD) procedures were used. Further means of separation was achieved by transforming the data using Square Root (x+0.5) or Log Base 10.

With `CC(C)C(=O)C1C(=O)C(C)(C)C(=O)C(C)(C)C1=O` [Flavesone, 1-isobutyroyl-3,3,5,5-tetramethylcyclohexan-2,4,6-trione] the “toxicity to D. noxia” value ([1]; 1-30,000 mg a.i./L) was “toxic to D. noxia”, the LC50 ([1]; Diuraphis noxia, foliar, exposure time not given, read-out: LC50) was 405 µg/mL (≈ 1610 µM) and the mortality at 3000 µg/mL ([1]; Diuraphis noxia, foliar, 3,000 mg a.i./L, largest increase, read-out: increase of mortality between 48 and 96 hours) was 58%. For the same compound, the mortality at 30000 µg/mL ([1]; Diuraphis noxia, foliar, 30,000 mg a.i./L, 48 hours exposure) was 100%, the LC50 ([1]; exposure time not given) was 405.4 mg a.i./L and the LC90 ([1]; concentration giving 90% mortality, exposure time not given) was 1.5 × 10^4 mg a.i./L. The LC99 ([1]; concentration giving 99% mortality, exposure time not given) was 8.1 × 10^5 mg a.i./L, the “concentration at which mortality began to increase” value ([1]; in vivo) was 300 mg a.i./L and the “toxicity to green peach aphid” value ([2]; 10 to 100,000 mg/L) was “toxic to green peach aphid”. The “concentration at which mortality responses began to increase” value ([2]; 48 hours) was 1000 mg/L, the “concentration at which mortality increased” value ([2]; 96 hours) was 1000 mg/L and the mortality at 10000 µg/mL ([2]; Myzus persicae, foliar, 10,000 mg/L, 96 hours) was 100%. The mortality at 30000 µg/mL ([2]; Myzus persicae, foliar, 30,000 mg/L, 48 hours exposure) was 100%, the “Mean Number of Cotton Aphid per leaf” value ([3]; 0.1% v/v, 0 DAT (pre-spray)) was 1.5 ab and the “Mean Percentage of Leaves infested with cotton Aphid” value (“Mean Percentage of Leaves infested” below) ([3]; 0.1% v/v, 0 DAT (pre-spray)) was 34%. The “Mean Number of Cotton Aphid per leaf” value ([3]; 0.1% v/v, 3 DAT) was 1.1 ab, the “Mean Percentage of Leaves infested” value ([3]; 0.1% v/v, 3 DAT) was 15% and the “Mean Number of Cotton Aphid per leaf” value ([3]; 0.1% v/v, 7 DAT) was 2.5 bc. For the same compound, the “Mean Percentage of Leaves infested” value ([3]; 0.1% v/v, 7 DAT) was 43 c %, the “Mean Number of Cotton Aphid per leaf” value ([3]; 0.25% v/v, 0 DAT (pre-spray)) was 2.6 b and the “Mean Percentage of Leaves infested” value ([3]; 0.25% v/v, 0 DAT (pre-spray)) was 43%. For the same compound, the “Mean Number of Cotton Aphid per leaf” value ([3]; 0.25% v/v, 3 DAT) was 2.1 ab, the “Mean Percentage of Leaves infested” value ([3]; 0.25% v/v, 3 DAT) was 39% and the “Mean Number of Cotton Aphid per leaf” value ([3]; 0.25% v/v, 7 DAT) was 3.1 c. The “Mean Percentage of Leaves infested” value ([3]; 0.25% v/v, 7 DAT) was 38 bc %, the “Mean Number of Cotton Aphid per leaf” value ([3]; 0.50% v/v, 0 DAT (pre-spray)) was 1.1 . . . ab and the “Mean Percentage of Leaves infested” value ([3]; 0.50% v/v, 0 DAT (pre-spray)) was 30%. The “Mean Number of Cotton Aphid per leaf” value ([3]; 0.50% v/v, 3 DAT) was 1.0 ab, the “Mean Percentage of Leaves infested” value ([3]; 0.50% v/v, 3 DAT) was 19% and the “Mean Number of Cotton Aphid per leaf” value ([3]; 0.50% v/v, 7 DAT) was 2.4 bc. The “Mean Percentage of Leaves infested” value ([3]; 0.50% v/v, 7 DAT) was 40 c %, the “Mean Number of Cotton Aphid per leaf” value ([3]; 0.75% v/v, 0 DAT (pre-spray)) was 1.4 ab and the “Mean Percentage of Leaves infested” value ([3]; 0.75% v/v, 0 DAT (pre-spray)) was 33%. The “Mean Number of Cotton Aphid per leaf” value ([3]; 0.75% v/v, 3 DAT) was 3.4 b, the “Mean Percentage of Leaves infested” value ([3]; 0.75% v/v, 3 DAT) was 34% and the “Mean Number of Cotton Aphid per leaf” value ([3]; 0.75% v/v, 7 DAT) was 2.7 bc. For the same compound, the “Mean Percentage of Leaves infested” value ([3]; 0.75% v/v, 7 DAT) was 50 c %, the “Mean Number of Cotton Aphid per leaf” value ([3]; 1.00% v/v, 0 DAT (pre-spray)) was 0.6 a and the “Mean Percentage of Leaves infested” value ([3]; 1.00% v/v, 0 DAT (pre-spray)) was 26%. The “Mean Number of Cotton Aphid per leaf” value ([3]; 1.00% v/v, 3 DAT) was 0.2 a, the “Mean Percentage of Leaves infested” value ([3]; 1.00% v/v, 3 DAT) was 9% and the “Mean Number of Cotton Aphid per leaf” value ([3]; 1.00% v/v, 7 DAT) was 1.0 ab. For the same compound, the “Mean Percentage of Leaves infested” value ([3]; 1.00% v/v, 7 DAT) was 19 b % and the “control of cotton aphid” value ([3]; highest 1% v/v rate) was “slightly better control”.
